The SangsterLogP compilation

Assay: method code SF-AS, from DOI: 10.1002/ardp.19893220504, PMID: 2569302
Settings: pH 7.4

| logD | Compound |
| --- | --- |
| 2.75 | COc1ccc2c(=O)c(C)c(-c3ccc(Cl)cc3)oc2c1CN1CCCC1 |
| 1.97 | COc1ccc2c(=O)c(C)c(-c3ccc(F)cc3)oc2c1CN(C)C |
| 3.94 | COc1ccc2c(=O)c(C)c(-c3ccc(Cl)cc3)oc2c1CN1CCOCC1 |
| 2.5 | COc1ccc2c(=O)c(C)c(-c3ccc(C)cc3)oc2c1CN1CCCC1 |
| 3.71 | COc1ccc2c(=O)c(C)c(-c3ccc(C)cc3)oc2c1CN1CCOCC1 |
| 2.41 | COc1ccc2c(=O)c(C)c(-c3ccc(C)cc3)oc2c1CN(C)C |
| 3.25 | COc1ccc2c(=O)c(C)c(-c3ccccc3)oc2c1CN1CCOCC1 |
| 2.66 | CCN(CC)Cc1c(OC)ccc2c(=O)c(C)c(-c3ccc(Cl)cc3)oc12 |
| 2.13 | COc1ccc2c(=O)c(C)c(-c3ccc(F)cc3)oc2c1CN1CCCC1 |
| 1.83 | COc1ccc2c(=O)c(C)c(-c3ccc([N+](=O)[O-])cc3)oc2c1CN1CCCC1 |
| 1.73 | COc1ccc2c(=O)c(C)c(-c3ccc([N+](=O)[O-])cc3)oc2c1CN(C)C |
| 1.99 | CCN(CC)Cc1c(OC)ccc2c(=O)c(C)c(-c3ccccc3)oc12 |
| 3.26 | COc1ccc2c(=O)c(C)c(-c3ccc(F)cc3)oc2c1CN1CCOCC1 |
| 1.93 | COc1ccc2c(=O)c(C)c(-c3ccccc3)oc2c1CN(C)C |
| 2.63 | COc1ccc2c(=O)c(C)c(-c3ccccc3)oc2c1CN1CCCCC1 |
| 1.7 | CCN(CC)Cc1c(OC)ccc2c(=O)c(C)c(-c3ccc([N+](=O)[O-])cc3)oc12 |
| 2.62 | COc1ccc2c(=O)c(C)c(-c3ccc(Cl)cc3)oc2c1CN(C)C |
| 3.02 | COc1ccc2c(=O)c(C)c(-c3ccc([N+](=O)[O-])cc3)oc2c1CN1CCOCC1 |
| 2.71 | COc1ccc2c(=O)c(C)c(-c3ccc(F)cc3)oc2c1CN1CCCCC1 |
| 2.46 | CCN(CC)Cc1c(OC)ccc2c(=O)c(C)c(-c3ccc(C)cc3)oc12 |
| 3.13 | COc1ccc2c(=O)c(C)c(-c3ccc(C)cc3)oc2c1CN1CCCCC1 |
| 2.53 | COc1ccc2c(=O)c(C)c(-c3ccc([N+](=O)[O-])cc3)oc2c1CN1CCCCC1 |
| 3.46 | COc1ccc2c(=O)c(C)c(-c3ccc(Cl)cc3)oc2c1CN1CCCCC1 |
| 1.99 | CCN(CC)Cc1c(OC)ccc2c(=O)c(C)c(-c3ccc(F)cc3)oc12 |
